From US7105577B2, “Antimicrobial method using a hydroxydiphenyl ether compound” (Ciba Specialty Chemicals Corporation, priority 1999, dated 2006)
≈ marks a conversion by molar mass, not a printed value.

Assays:
Test in all cases: Agar incorporation test, MIC
Format in all cases: cell-based
[1] = test system: Staphylococcus hominis DSM 20328; settings: DSM20328; Table 1; Staphylococcus hominis DSM 20328; agar incorporation; read-out: Minimum Inhibitory Concentration, SH
[2] = test system: Aspergillus niger ATCC 6275; settings: ATCC6275; Table 1; Aspergillus niger ATCC 6275; agar incorporation; read-out: Minimum Inhibitory Concentration, AN
From the text: (§1) Medium: • Nutrient agar as test agar for bacteria: • Mueller hinton agar to cultivate the aerobic bacteria • Mueller hinton bouillon for obtaining the suspension of microorganisms • Ethanol as solvent • Wilkins-Chalgren agar to cultivate the […] bacteria • Sabouraud glucose agar to cultivate the dermatophytes
(§2) Examples of Test bacteria • Staphylococcus aureusATCC 6538 • Staphylococcus hominis DSM 20330 • Escherichia coli NCTC 8196 • Pseudomonas aeruginosa CIP A-22 • Candida albicans ATCC 10231 • Aspergillus niger ATCC 6275
(§3) Procedure: The test substances are dissolved in ethanol, and a dilution series of the compound of the formula (102) in agar are prepared. • Anaerobic bacteria and dermatophytes are activated on agar-plates, and washes off with Mueller-Hinton bouillon. Aerobic bacteria are activated in Mueller-Hinton bouillon overnight. The test germ suspension are diluted with Mueller-Hinton bouillon to a density of McFarland standard 0.5. • 10 μl of each germ suspension is dropped onto the agar plates containing the test substance, and the plates are then incubated at 37° C. for 2 days. (Aerobic bacteria are incubated at 36° C. for 72 hours, anaerobic bacteria are incubated at 30° C. for 72 hours). As controls, the bacterial suspensions are applied to agar plates without test substances.

[3] = test system: Candida albicans ATCC 10231; settings: ATCC10231; Table 1; Candida albicans ATCC 10231; agar incorporation; read-out: Minimum Inhibitory Concentration, CA
From the text: as §1, §2, §3

[4] = test system: Escherichia coli NCTC 8196; settings: NCTC8196; Table 1; Escherichia coli NCTC 8196; agar incorporation; read-out: Minimum Inhibitory Concentration, EC
From the text: as §1, §2, §3

[5] = test system: Staphylococcus aureus ATCC 6538; settings: ATCC6538; Table 1; Staphylococcus aureus ATCC 6538; agar incorporation; read-out: Minimum Inhibitory Concentration, SA
From the text: as §1, §2, §3

SMILES	MIC [1] [µg/mL]	MIC [2] [µg/mL]	MIC [3] [µg/mL]	MIC [4] [µg/mL]	MIC [5] [µg/mL]
CCCCc1ccc(Oc2ccccc2)cc1O [(104)]	30 (≈ 124 µM)	60 (≈ 248 µM)	30 (≈ 124 µM)	30 (≈ 124 µM)	–
CCCc1ccc(Oc2ccccc2)cc1O [(105)]	30 (≈ 131 µM)	30 (≈ 131 µM)	30 (≈ 131 µM)	30 (≈ 131 µM)	–
CCCCCc1ccc(Oc2ccccc2)cc1O [(106)]	30 (≈ 117 µM)	60 (≈ 234 µM)	60 (≈ 234 µM)	30 (≈ 117 µM)	–
Oc1ccccc1Oc1ccccc1 [(107)]	30 (≈ 161 µM)	120 (≈ 644 µM)	–	30 (≈ 161 µM)	–
CCC(=O)c1ccc(O)c(Oc2ccccc2)c1 [(108)]	60 (≈ 248 µM)	–	–	120 (≈ 495 µM)	–
CCCC(=O)c1ccc(O)c(Oc2ccccc2)c1 [(109)]	30 (≈ 117 µM)	120 (≈ 468 µM)	120 (≈ 468 µM)	30 (≈ 117 µM)	–
O=Cc1ccc(O)c(Oc2ccccc2)c1 [(110)]	–	–	–	30 (≈ 140 µM)	–
CCC(C)c1ccccc1Oc1ccccc1O (stereo not drawn) [(111)]	60 (≈ 248 µM)	120 (≈ 495 µM)	30 (≈ 124 µM)	–	–
CC(C)c1ccccc1Oc1ccccc1O [(112)]	60 (≈ 263 µM)	120 (≈ 526 µM)	60 (≈ 263 µM)	–	–
Cc1ccccc1Oc1ccccc1O [(113)]	30 (≈ 150 µM)	60 (≈ 300 µM)	120 (≈ 599 µM)	30 (≈ 150 µM)	–
CC(C)(C)c1ccccc1Oc1ccccc1O [(114)]	30 (≈ 124 µM)	120 (≈ 495 µM)	60 (≈ 248 µM)	30 (≈ 124 µM)	–
CCc1ccccc1Oc1ccccc1O [(115)]	120 (≈ 560 µM)	120 (≈ 560 µM)	120 (≈ 560 µM)	120 (≈ 560 µM)	–
CCC(C)c1ccccc1Oc1cccc(O)c1 (stereo not drawn) [(116)]	30 (≈ 124 µM)	30 (≈ 124 µM)	30 (≈ 124 µM)	–	–
Oc1ccc(Oc2ccccc2O)cc1 [(117)]	–	–	–	60 (≈ 297 µM)	–
Cc1ccc(C(C)C)c(Oc2ccc(O)cc2)c1 [(118)]	3 (≈ 12.4 µM)	–	50 (≈ 206 µM)	50 (≈ 206 µM)	5 (≈ 20.6 µM)
